# Earlier results as cited in patent publication US12163116B2, “Automated bioreactor with foam collector” (OHIO STATE INNOVATION FOUNDATION, priority 2018, dated 2024).
# Tests used:
# [1] = tested on: L. innocua; conditions: against L. innocua; taught by prior art
# [2] = tested on: Gram-positive bacteria including species of Listeria, Clostridium, Lactobacillus, Staphylococcus, Bacillus
# [3] = compared to commercially available lantibiotics such as nisin
substance,measurement,setting,value
paenibacillin,minimum inhibitory concentration,[1],4 µg/mL
same,antimicrobial potency,[2],potent against Gram-positive bacteria
same,water solubility,,highly water soluble
same,temperature and pH stability,[3],relatively high temperature and pH stability
